This test deals with T1, sodium-proton exchanger of subtype 3 (NHE3) (Homo sapiens, UniProt P48764).
T1 construct: expressed in transfected cells
T1 sequence (P48764 26-834): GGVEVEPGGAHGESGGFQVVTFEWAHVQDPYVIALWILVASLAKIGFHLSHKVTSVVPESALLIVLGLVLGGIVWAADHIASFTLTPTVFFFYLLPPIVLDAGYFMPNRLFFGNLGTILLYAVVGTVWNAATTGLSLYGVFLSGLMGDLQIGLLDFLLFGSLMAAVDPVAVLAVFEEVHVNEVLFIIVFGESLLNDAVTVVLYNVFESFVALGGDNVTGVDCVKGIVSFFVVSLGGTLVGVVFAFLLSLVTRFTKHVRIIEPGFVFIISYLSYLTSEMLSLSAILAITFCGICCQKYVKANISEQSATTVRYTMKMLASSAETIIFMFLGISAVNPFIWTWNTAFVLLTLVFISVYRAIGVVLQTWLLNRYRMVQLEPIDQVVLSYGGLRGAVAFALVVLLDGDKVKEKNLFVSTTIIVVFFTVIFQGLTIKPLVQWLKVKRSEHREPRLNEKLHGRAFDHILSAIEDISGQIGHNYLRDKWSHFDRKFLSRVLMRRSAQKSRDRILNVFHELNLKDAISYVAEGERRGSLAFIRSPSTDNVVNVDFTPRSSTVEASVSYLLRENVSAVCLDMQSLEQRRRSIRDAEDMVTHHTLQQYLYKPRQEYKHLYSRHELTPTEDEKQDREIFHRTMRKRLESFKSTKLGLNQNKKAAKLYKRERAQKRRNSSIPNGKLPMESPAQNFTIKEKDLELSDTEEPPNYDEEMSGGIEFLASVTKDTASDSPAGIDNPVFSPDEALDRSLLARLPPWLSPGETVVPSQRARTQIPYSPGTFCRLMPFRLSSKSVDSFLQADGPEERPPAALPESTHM
The experiment in a line: Recovery of intracellular pH (pHi) after acidification in LAP1 cells stably expressing NHE3 (BCECF fluorescence, FLIPR). Format: cell-based. The following applies: LAP1 cells stably expressing NHE3; pH recovery after acidification; range 1 is % inhibition at 10 μM; read-out: Activity range (inhibitory effect on NHE3).

Where only a bound is given, the exact number is not on record here.

Drawing on US8822449B2, “Substituted aminoindanes and analogs thereof, and the pharmaceutical use thereof” (Sanofi, priority 2008, dated 2014), this text covers inhibition and IC50 for 28 molecules.

For `N[C@H]1CCCN([C@H]2CCc3ccccc3[C@@H]2Oc2ccncc2)C1` (racemic) [Example 191, (S)-1-[rac-trans-(1,2)-1-(pyridin-4-yloxy)-1,2,3,4-tetrahydronaphthalen-2-yl]piperidin-3-ylamine], the inhibition at 10 µM is 20 to 50%.
Regarding `COCCN1CCCN([C@H]2Cc3c(Cl)cc(Cl)cc3[C@@H]2Oc2ccc(-n3c(C)nnc3C)cc2)CC1` [Example 348, 1-{trans-(1S,2S)-4,6-dichloro-1-[4-(3,5-dimethyl-[1,2,4]triazol-4-yl)phenoxy]indan-2-yl}-4-(2-methoxyethyl)-[1,4]diazepane], the IC50 was less than 1 µM.
Same read-out and setting: the value for `CCOC(=O)c1ncoc1-c1ccc(O[C@H]2c3ccccc3CC[C@@H]2N2CCC[C@@H](N)C2)cc1` (racemic) [Example 583, 5-{4-[rac-trans-(1,2)-2-((R)-3-aminopiperidin-1-yl)-1,2,3,4-tetrahydronaphthalen-1-yloxy]phenyl}oxazole-4-carboxylic acid ethyl ester] was 1 to 10 µM.
On the same count and under the same terms, the value for `N[C@@H]1CCCN([C@@H]2Cc3ccccc3[C@H]2Oc2ccnc3ccccc23)C1` (racemic) [Example 88, (R)-1-[rac-trans-(1,2)-1-(quinolin-4-yloxy)indan-2-yl]piperidin-3-ylamine] was 1 to 10 µM.
On to `C[C@@]1(N2CCCC2)Cc2ccccc2[C@H]1Oc1ccc(S(C)(=O)=O)cc1` (racemic) [Example 252, 1-[1-(4-methanesulfonylphenoxy)-2-methylindan-2-yl]pyrrolidine], for which the inhibition at 10 µM is 20 to 50%.
As to `O=c1[nH]ccn1-c1cccc(O[C@@H]2c3ccccc3C[C@H]2N2CCCC2)c1` (racemic) [Example 254, 1-[3-(rac-trans-(1,2)-2-pyrrolidin-1-ylindan-1-yloxy)phenyl]-1,3-dihydroimidazol-2-one], the IC50 is less than 1 µM.
For the molecule `CC(C)[C@H]1COC(=O)N1c1ccc(Cl)c(O[C@H]2c3cc(Cl)cc(F)c3C[C@@H]2N2CC[C@@H](O)C2)c1` [Example 211, (S)-3-{4-chloro-3-[(1S,2S)-6-chloro-4-fluoro-2((R)-3-hydroxypyrrolidin-1-yl)indan-1-yloxy]phenyl}-4-isopropyloxazolidin-2-one], the inhibition at 10 µM lay in the range of 20 to 50%.
As to `N#Cc1ccc(O[C@H]2c3ccccc3CC[C@@H]2N2CCC[C@@H](N)C2)c(Cl)c1` (racemic) [Example 514, 4-[rac-trans-(1,2)-2-((R)-3-aminopiperidin-1-yl)-1,2,3,4-tetrahydronaphthalen-1-yloxy]-3-chlorobenzonitrile], the IC50 fell in the range of 1 to 10 µM.
On the same count and under the same terms, under `COC(=O)c1ccc(O[C@H]2c3ccccc3C[C@@H]2N2CCCC2)cc1` (racemic) [Example 467, 4-(rac-trans-(1,2)-2-pyrrolidin-1-ylindan-1-yloxy)benzoic acid methyl ester] stands 1 to 10 µM.
In the case of `Cc1nnc(C)n1-c1ccc(O[C@H]2c3cc(Cl)cc(Cl)c3C[C@@H]2N2CCCN(C)CC2)c(Cl)c1` [Example 345, 1-{trans-(1S,2S)-4,6-dichloro-1-[2-chloro-4-(3,5-dimethyl-[1,2,4]triazol-4-yl)phenoxy]indan-2-yl}-4-methyl-[1,4]diazepane], the IC50 was less than 1 µM.
Still for that read-out and setting: the value for `CS(=O)(=O)c1ccc(O[C@@H]2c3ccccc3C[C@H]2NCC2CC2)cc1` (racemic) [Example 624, Cyclopropylmethyl-[1-(4-methanesulfonylphenoxy)indan-2-yl]amine] was 1 to 10 µM; that for `O=C1COC(=O)N1c1ccc(F)c(O[C@H]2c3cc(Cl)cc(Cl)c3C[C@@H]2N2CC[C@@H](O)C2)c1` [Example 418, 3-{3-[(1S,2S)-4,6-dichloro-2-((R)-3-hydroxypyrrolidin-1-yl)indan-1-yloxy]-4-fluorophenyl}oxazolidine-2,4-dione] was 1 to 10 µM; that for `CC(C)[C@H]1COC(=O)N1c1ccc(F)c(O[C@H]2c3cc(Cl)cc(F)c3C[C@@H]2N2CC[C@@H](O)C2)c1` [Example 210, (S)-3-{3-[(1S,2S)-6-chloro-4-fluoro-2-((R)-3-hydroxypyrrolidin-1-yl)indan-1-yloxy]-4-fluorophenyl}-4-isopropyloxazolidin-2-one] was 1 to 10 µM.
Still for that read-out and setting: the value for `Cc1nnc(C)n1-c1ccc(O[C@H]2c3ccccc3C[C@@H]2N2CCCC2)cc1` (racemic) [Example 405, 3,5-dimethyl-4-[4-(rac-trans-(1,2)-2-pyrrolidin-1-ylindan-1-yloxy)phenyl]-4H-[1,2,4]triazole] was less than 1 µM.
Still for that read-out and setting: under `O=C1COCC(=O)N1c1ccc(O[C@H]2c3cc(Cl)cc(Cl)c3C[C@@H]2N2CC[C@@H](O)C2)c(F)c1` [Example 560, 4-{4-[(1S,2S)-4,6-dichloro-2-((R)-3-hydroxypyrrolidin-1-yl)indan-1-yloxy]-3-fluorophenyl}morpholine-3,5-dione] stands less than 1 µM.
Turning to `NC(=O)c1ccccc1O[C@H]1c2ccccc2CC[C@@H]1N1CCC[C@@H](N)C1` (racemic) [Example 368, 2-[rac-trans-(1,2)-2-((R)-3-aminopiperidin-1-yl)-1,2,3,4-tetrahydronaphthalen-1-yloxy]benzamide], the IC50 fell in the range of 1 to 10 µM.
On the same count and under the same terms, under `NS(=O)(=O)c1ccc(O[C@H]2c3ccccc3C[C@@H]2CN2CCCC2)c(Cl)c1` (racemic) [Example 442, 3-chloro-4-(2-pyrrolidin-1-ylmethylindan-1-yloxy)benzenesulfonamide] stands 1 to 10 µM; under `CC(=O)Nc1cccc(O[C@H]2c3cc(F)cc(Cl)c3C[C@@H]2N2CCC[C@@H](N)C2)c1` (racemic) [Example 677, N-{3-[rac-trans-(1,2)-2-((R)-3-aminopiperidin-1-yl)-4-chloro-6-fluoroindan-1-yloxy]phenyl}acetamide], less than 1 µM.
In the case of `N[C@H]1CCCN([C@H]2CCc3ccccc3[C@@H]2Oc2ccc(-n3ccnc3)cc2)C1` (racemic) [Example 180, (S)-1-[rac-trans-(1,2)-1-(4-imidazol-1-ylphenoxy)-1,2,3,4-tetrahydronaphthalen-2-yl]piperidin-3-ylamine], the inhibition at 10 µM lay within 20 to 50%.
The same measure, in the same setting: the value for `CS(=O)(=O)c1ccc(O[C@H]2c3ccccc3C[C@@H]2N2CCC[C@@H](NC(=O)C(F)(F)F)C2)cc1` [Example 354, 2,2,2-trifluoro-N-{(R)-1-[trans-(1S,2S)-1-(4-methanesulfonylphenoxy)indan-2-yl]piperidin-3-yl}acetamide] was 20 to 50%.
For `O=C1CCC(=O)N1c1ccc(O[C@H]2c3cc(Cl)cc(F)c3C[C@@H]2NC2CCCC2)c(F)c1` [Example 752, 1-[4-(trans-(1S,2S)-6-Chloro-2-cyclopentylamino-4-fluoro-indan-1-yloxy)-3-fluoro-phenyl]-pyrrolidine-2,5-dione], the IC50 is 1 to 10 µM.
The same measure, in the same setting: under `NC(=O)c1cc(Cl)ccc1O[C@H]1c2ccccc2CC[C@@H]1N1CCC[C@@H](N)C1` (racemic) [Example 365, 2-[rac-trans-(1,2)-2-((R)-3-aminopiperidin-1-yl)-1,2,3,4-tetrahydronaphthalen-1-yloxy]-5-chlorobenzamide] stands 1 to 10 µM.
For `COc1cccc(OC)c1O[C@H]1c2ccccc2CC[C@@H]1N1CCC[C@@H](N)C1` (racemic) [Example 34, (R)-1-[rac-trans-(1,2)-1-(2,6-dimethoxyphenoxy)-1,2,3,4-tetrahydronaphthalen-2-yl]piperidin-3-ylamine], the inhibition at 10 µM was in the range of 20 to 50%.
Still for that read-out and setting: under `COc1cccc(CC#N)c1O[C@H]1c2ccccc2CC[C@@H]1N1CCC[C@@H](N)C1` (racemic) [Example 229, {2-[rac-trans-(1,2)-2-((R)-3-aminopiperidin-1-yl)-1,2,3,4-tetrahydronaphthalen-1-yloxy]-3-methoxyphenyl}acetonitrile] stands 20 to 50%.
As for `Cc1nnc(C)n1-c1ccc(O[C@H]2c3cc(Cl)cc(Cl)c3C[C@@H]2N2CCC[C@@H](O)C2)cc1` [Example 132, (R)-1-{trans-(1S,2S)-4,6-dichloro-1-[4-(3,5-dimethyl-[1,2,4]triazol-4-yl)phenoxy]indan-2-yl}piperidin-3-ol], the IC50 was less than 1 µM.
With `NC(=O)c1cc(Cl)ccc1O[C@H]1c2ccccc2CC[C@@H]1N1CCC[C@H](N)C1` (racemic) [Example 370, 2-[rac-trans-(1,2)-2-((S)-3-aminopiperidin-1-yl)-1,2,3,4-tetrahydronaphthalen-1-yloxy]-5-chlorobenzamide], the IC50 was less than 1 µM.
On to `CN(C)C(=O)Cc1ccc(O[C@H]2c3ccccc3CC[C@@H]2N2CCC[C@@H](N)C2)cc1` (racemic) [Example 380, 2-{4-[rac-trans-(1,2)-2-((R)-3-aminopiperidin-1-yl)-1,2,3,4-tetrahydronaphthalen-1-yloxy]phenyl}-N,N-dimethylacetamide], for which the inhibition at 10 µM fell in the range of 20 to 50%.
Regarding `CS(=O)(=O)c1ccc(O[C@H]2c3cc(Cl)cc(F)c3C[C@@H]2N2CCNCC2)cc1` (racemic) [Example 292, 1-[rac-trans-(1,2)-6-chloro-4-fluoro-1-(4-methanesulfonylphenoxy)indan-2-yl]piperazine], the IC50 is less than 1 µM.
